Assay results: patent US10857138B2, “Pharmaceutical compositions comprising antibacterial agents” (WOCKHARDT LIMITED, priority 2014, dated 2020)

Columns and labels:
[1] = test system: Klebsiella pneumoniae NCTC 13443 strain producing NDM-1, SHV and TEM beta-lactamase enzymes; assay: Time kill study against K. pneumoniae NCTC 13443; format: cell-based; settings: for Bacterial count (Log10CFU/ml) 2 hours / Bacterial count (Log10CFU/ml) 4 hours / Bacterial count (Log10CFU/ml) 6 hours / Bacterial count (Log10CFU/ml) 8 hours: each agent at 4 mcg/ml, alone or in combination; for Effect on bacterial count when used alone: used alone at 4 μg/ml, throughout the duration of the study
Protocol: (§1) In a typical time kill study, the freshly grown cultures were diluted to the required cell density (initial starting inoculum) in Cation adjusted Muller Hinton broth medium (BD, USA). The antibacterial agents (either alone or in combination) at the required concentrations were added into the culture-containing medium. The samples were incubated under shaking condition (120 rpm) at 37° C. Enumeration of viable bacterial count was done every 2 hour by diluting in normal saline and plating on to the Tryptic Soya Agar plates (BD, USA). The plates were incubated for 24 hours to arrive at the viable bacterial count. […] In general, the decrease of 1 Log CFU/ml, corresponds to 90% killing of bacteria. Similarly, 2 Log CFU/ml reductions indicates to 99% killing of bacteria and 3 Log CFU/ml reductions is equal to 99.9% killing of bacteria.
(§2) The assay without any antibacterial agent was taken as control.

[2] = test system: Klebsiella pneumoniae B 88 strain producing NDM-1, SHV, TEM and CTXM beta-lactamase enzymes; assay: Time kill study against K. pneumoniae B 88; format: cell-based; design: Effect on bacterial count when used alone: dose or concentration left out as unconfirmed; settings: for Bacterial count (Log10CFU/ml) 2 hours / Bacterial count (Log10CFU/ml) 4 hours / Bacterial count (Log10CFU/ml) 6 hours / Bacterial count (Log10CFU/ml) 8 hours: each agent at 4 mcg/ml, alone or in combination; for Effect on bacterial count when used alone: used alone at 4 mcg/ml, throughout the duration of the study
Protocol: as §1, §2

SMILES	Bacterial count (Log10CFU/ml) 2 hours [1] [Log10CFU/ml]	Bacterial count (Log10CFU/ml) 4 hours [1] [Log10CFU/ml]	Bacterial count (Log10CFU/ml) 6 hours [1] [Log10CFU/ml]	Bacterial count (Log10CFU/ml) 8 hours [1] [Log10CFU/ml]	Effect on bacterial count when used alone [1]	Bacterial count (Log10CFU/ml) 2 hours [2] [Log10CFU/ml]	Bacterial count (Log10CFU/ml) 4 hours [2] [Log10CFU/ml]	Bacterial count (Log10CFU/ml) 6 hours [2] [Log10CFU/ml]	Bacterial count (Log10CFU/ml) 8 hours [2] [Log10CFU/ml]	Effect on bacterial count when used alone [2]
C[C@H]1[C@H](NC(=O)/C(=N\OC(C)(C)C(=O)O)c2csc(N)n2)C(=O)N1S(=O)(=O)O [Aztreonam, reference compound]	8.38	8.65	9.02	9.55	not effective to decrease the bacterial count	8.16	8.7	8.88	9.04	not effective to decrease the bacterial count
N#C[C@@H]1CC[C@@H]2CN1C(=O)N2OS(=O)(=O)[O-].[Na+] [Compound A, Sodium salt of trans-7-oxo-6-sulphooxy-1,6-diazabicyclo[3.2.1]-octane-2-carbonitrile]	8.3	8.5	8.8	9	not effective to decrease the bacterial count	8	8.2	8.5	8.8	not effective to decrease the bacterial count
NC(=O)c1nnc([C@@H]2CC[C@@H]3CN2C(=O)N3OS(=O)(=O)O)o1 [Compound B]	8.3	8.5	8.8	8.9	not effective to decrease the bacterial count	7.98	8.2	8.50	8.9	not effective to decrease the bacterial count
O=C1N2C[C@@H](CC[C@H]2c2nnc(C3CCNCC3)o2)N1OS(=O)(=O)O [Compound C]	8.2	8.9	9	9.5	not effective to decrease the bacterial count	8.1	8.15	8.65	8.9	not effective to decrease the bacterial count
O=C1N2C[C@@H](CC[C@H]2c2nnc(CC3CNC3)o2)N1OS(=O)(=O)O [Compound D]	8.3	8.55	8.95	9.2	not effective to decrease the bacterial count	8.05	8.3	8.7	8.8	not effective to decrease the bacterial count
O=C(NNC(=O)[C@@H]1CC[C@@H]2CN1C(=O)N2OS(=O)(=O)O)[C@@H]1CCCNC1 [Compound E, (2S,5R)-7-Oxo-6-sulphooxy-2-[N′—((R)-piperidine-3-carbonyl)-hydrazinocarbonyl]-1,6-diaza-bicyclo[3.2.1]octane]	8.35	8.6	8.8	8.9	not effective to decrease the bacterial count	7.9	8.3	8.8	8.9	not effective to decrease the bacterial count
O=C(NOC[C@@H]1CCCN1)[C@@H]1CC[C@@H]2CN1C(=O)N2OS(=O)(=O)O [Compound F, (2S,5R)-7-Oxo-N-[(2S)-pyrrolidin-2-ylmethoxy]-6-(sulfooxy)-1,6-diaza bicyclo[3.2.1]octane-2-carboxamide]	8.4	8.7	8.9	9.1	not effective to decrease the bacterial count	8	8.2	8.35	8.7	not effective to decrease the bacterial count
O=C(NNC(=O)[C@@H]1CC[C@@H]2CN1C(=O)N2OS(=O)(=O)O)[C@@H]1CCNC1 [Compound G, (2S,5R)-7-Oxo-6-sulphooxy-2-[N′—((R)-pyrrolidine-3-carbonyl)-hydrazinocarbonyl]-1,6-diaza-bicyclo[3.2.1]octane]	8.36	8.78	8.9	9.2	not effective to decrease the bacterial count	7.95	8.05	8.7	8.98	not effective to decrease the bacterial count
O=C(NOC[C@@H]1CCCCN1)[C@@H]1CC[C@@H]2CN1C(=O)N2OS(=O)(=O)O [Compound H, (2S,5R)-7-Oxo-N-[(2S)-piperidine-2-ylmethyloxy]-6-(sulfooxy)-1,6-diazabicyclo[3.2.1]octane-2-carboxamide]	8.35	8.48	8.9	9.1	not effective to decrease the bacterial count	8.15	8.3	8.65	8.98	not effective to decrease the bacterial count
C[C@H](N)c1nnc([C@@H]2CC[C@@H]3CN2C(=O)N3OS(=O)(=O)O)o1 [Compound I, trans-sulphuric acid mono-[2-(5-((S)-1-amino-ethyl)-[1,3,4]-oxadiazol-2-yl)-7-oxo-1,6-diazabicyclo[3.2.1]-octan-6-yl] ester]	8.36	8.79	8.9	9.1	not effective to decrease the bacterial count	8.36	8.79	8.9	9.1	not effective to decrease the bacterial count
O=C1N2C[C@@H](CC[C@H]2c2nnc([C@@H]3CCCN3)o2)N1OS(=O)(=O)O [Compound J, trans-sulphuric acid mono-[2-(5-((S)-pyrrolidin-2-yl)-[1,3,4]-oxadiazol-2-yl)-7-oxo-1,6-diazabicyclo[3.2.1]-octan-6-yl] ester]	8.35	8.5	8.8	9.2	not effective to decrease the bacterial count	8.35	8.5	8.8	9.2	not effective to decrease the bacterial count
C[C@@H](O)[C@H]1C(=O)N2C(C(=O)O)=C(SCCN=CN)C[C@H]12 [Imipenem, reference compound]	8.35	8.78	8.88	9.09		8.28	8.7	8.9	9.2	
